Experimental data from publication PMC4890880 (ACS infectious diseases, 2016).
Read-outs that look alike come from different tables or passages of the source.

What was measured:
[1] = test system: Plasmodium berghei (Pb-Luc) exoerythrocytic-stage parasites; settings: for normalised signal at concentration 10 (first series): concentration 10, first series of dose columns; for normalised signal at concentration 10 (second series): concentration 10, second series of dose columns; for IC50: read-out: PbLuc_IC50
HepG2-A16-CD81EGFP cells = settings: for IC50: read-out: Tox_IC50, HepG2 cytotoxicity
[2] = sheet "2nd round", Broad compounds, dose response top concentration 10
[3] = 2nd round, maximal inhibition in dose series
[4] = first series, fraction of control
[5] = second series, fraction of control
[6] = sheet 2nd round, maximal inhibition in dose response
[7] = first series of columns, fraction of control
[8] = second series of columns (replicate), fraction of control

## O=C(C1CCOCC1)N1C[C@@H]2[C@H](c3ccccc31)[C@H](CO)N2C(=O)Cc1ccccn1 [BRD-K09790760-001-01-0]
[1]
  normalised signal at concentration 0.000508053 (first series): 0.7162
  normalised signal at concentration 0.000508053 (second series): 0.9348
  normalised signal at concentration 0.00152416 (first series): 0.8009
  normalised signal at concentration 0.00152416 (second series): 0.7622
  normalised signal at concentration 0.00457247 (first series): 0.9824
  normalised signal at concentration 0.00457247 (second series): 0.8311
  normalised signal at concentration 0.0137174 (first series): 0.8823
  normalised signal at concentration 0.0137174 (second series): 0.8539
  normalised signal at concentration 0.0411523 (first series): 1.052
  normalised signal at concentration 0.0411523 (second series): 0.8968
  normalised signal at concentration 0.123457 (first series): 0.7822
  normalised signal at concentration 0.123457 (second series): 0.8152
  normalised signal at concentration 0.37037 (first series): 0.9579
  normalised signal at concentration 0.37037 (second series): 1.035
  normalised signal at concentration 1.11111 (first series): 0.8507
  normalised signal at concentration 1.11111 (second series): 0.8044
  normalised signal at concentration 3.33333 (first series): 0.9897
  normalised signal at concentration 3.33333 (second series): 1.088
  normalised signal at concentration 10 (first series): 0.9272
  normalised signal at concentration 10 (second series): 0.9177
[1]; [2]
  IC50: > 10 µM
[1]; sheet "2nd round"
  PbLuc_max_inhibition (%): 28%
HepG2-A16-CD81EGFP cells; sheet "2nd round"
  IC50: > 10 µM
  Tox_max_inhibition (%): 5%

## COc1ccc(NC(=O)N(C)C[C@H]2Oc3c(NC(=O)CCCCCC(=O)Nc4ccccc4N)cccc3C(=O)N([C@@H](C)CO)C[C@H]2C)cc1 [BRD-K03339938-001-01-9]
[1]
  normalised signal at concentration 0.000508053 (first series): 1.103
  normalised signal at concentration 0.000508053 (second series): 1.02
  normalised signal at concentration 0.00152416 (first series): 0.9211
  normalised signal at concentration 0.00152416 (second series): 0.7891
  normalised signal at concentration 0.00457247 (first series): 0.9975
  normalised signal at concentration 0.00457247 (second series): 0.8582
  normalised signal at concentration 0.0137174 (first series): 0.9216
  normalised signal at concentration 0.0137174 (second series): 0.8637
  normalised signal at concentration 0.0411523 (first series): 0.9804
  normalised signal at concentration 0.0411523 (second series): 0.9024
  normalised signal at concentration 0.123457 (first series): 0.8136
  normalised signal at concentration 0.123457 (second series): 0.9499
  normalised signal at concentration 0.37037 (first series): 0.9387
  normalised signal at concentration 0.37037 (second series): 1.008
  normalised signal at concentration 1.11111 (first series): 0.9514
  normalised signal at concentration 1.11111 (second series): 0.9972
  normalised signal at concentration 3.33333 (first series): 1.011
  normalised signal at concentration 3.33333 (second series): 1.0698
  normalised signal at concentration 10 (first series): 1.4773
  normalised signal at concentration 10 (second series): 1.187
[1]; [2]
  IC50: > 10 µM
[1]; sheet "2nd round"
  PbLuc_max_inhibition (%): 21%
HepG2-A16-CD81EGFP cells; sheet "2nd round"
  IC50: > 10 µM
  Tox_max_inhibition (%): 4.46%

## O=C(Cc1ccccn1)N1CC2(C1)[C@H](c1ccccc1)[C@H](CO)N2C(=O)c1ccncc1 [BRD-K71274172-001-01-0]
[1]; [3]
  PbLuc_max_inhibition (%): 33%
[1]; concentration 0.000508053, first replicate series, fraction of control
  normalized signal at 0.000508053 (first series): 0.9199
[1]; concentration 0.000508053, second replicate series, fraction of control
  normalized signal at 0.000508053 (second series): 0.7398
[1]; concentration 0.00152416, first replicate series, fraction of control
  normalized signal at 0.00152416 (first series): 1.024
[1]; concentration 0.00152416, second replicate series, fraction of control
  normalized signal at 0.00152416 (second series): 0.9453
[1]; concentration 0.00457247, first replicate series, fraction of control
  normalized signal at 0.00457247 (first series): 1.112
[1]; concentration 0.00457247, second replicate series, fraction of control
  normalized signal at 0.00457247 (second series): 0.9743
[1]; concentration 0.0137174, first replicate series, fraction of control
  normalized signal at 0.0137174 (first series): 0.9082
[1]; concentration 0.0137174, second replicate series, fraction of control
  normalized signal at 0.0137174 (second series): 0.6716
[1]; concentration 0.0411523, first replicate series, fraction of control
  normalized signal at 0.0411523 (first series): 1.078
[1]; concentration 0.0411523, second replicate series, fraction of control
  normalized signal at 0.0411523 (second series): 0.9171
[1]; concentration 0.123457, first replicate series, fraction of control
  normalized signal at 0.123457 (first series): 1.09
[1]; concentration 0.123457, second replicate series, fraction of control
  normalized signal at 0.123457 (second series): 1.008
[1]; concentration 0.37037, first replicate series, fraction of control
  normalized signal at 0.37037 (first series): 0.9519
[1]; concentration 0.37037, second replicate series, fraction of control
  normalized signal at 0.37037 (second series): 0.8993
[1]; concentration 1.11111, first replicate series, fraction of control
  normalized signal at 1.11111 (first series): 1.039
[1]; concentration 1.11111, second replicate series, fraction of control
  normalized signal at 1.11111 (second series): 0.6979
[1]; concentration 3.33333, first replicate series, fraction of control
  normalized signal at 3.33333 (first series): 0.9642
[1]; concentration 3.33333, second replicate series, fraction of control
  normalized signal at 3.33333 (second series): 0.9744
[1]; concentration 10, first replicate series, fraction of control
  normalized signal at 10 (first series): 1.127
[1]; concentration 10, second replicate series, fraction of control
  normalized signal at 10 (second series): 0.8663
[1]; 2nd round, Broad DOS compounds, unit not printed (dose series head 10 to 0.000508053)
  IC50: > 10 µM
HepG2-A16-CD81EGFP cells; [3]
  Tox_max_inhibition (%): 8%
HepG2-A16-CD81EGFP cells; 2nd round, unit inferred
  IC50: > 10 µM

## COCC(=O)N1C[C@H](C)[C@@H](OC)CN(C)C(=O)c2ccc(NC(=O)Nc3cccc(F)c3)cc2OC[C@@H]1C [BRD-K86826411-001-01-1]
[1]; first series of dose-response columns, fraction of control
  normalized signal at concentration 10: 0.9867
[1]; [4]
  normalized signal at concentration 0.000508053: 0.8374
  normalized signal at concentration 0.00152416: 0.9593
  normalized signal at concentration 0.00457247: 1.078
  normalized signal at concentration 0.0137174: 1.13
  normalized signal at concentration 0.0411523: 1.203
  normalized signal at concentration 0.123457: 1.151
  normalized signal at concentration 0.37037: 1.155
  normalized signal at concentration 1.11111: 1.129
  normalized signal at concentration 3.33333: 1.057
[1]; sheet 2nd round, Broad compounds, dose response
  IC50: > 10 µM
[1]; second series of dose-response columns, fraction of control
  normalized signal at concentration 10: 0.6676
[1]; [5]
  normalized signal at concentration 0.000508053: 0.905
  normalized signal at concentration 0.00152416: 1.0576
  normalized signal at concentration 0.00457247: 1.018
  normalized signal at concentration 0.0137174: 1.011
  normalized signal at concentration 0.0411523: 0.9885
  normalized signal at concentration 0.123457: 1.0489
  normalized signal at concentration 0.37037: 0.9498
  normalized signal at concentration 1.11111: 1.1227
  normalized signal at concentration 3.33333: 1.155
[1]; [6]
  PbLuc_max_inhibition (%): 33%
HepG2-A16-CD81EGFP cells; sheet 2nd round
  IC50: > 10 µM
HepG2-A16-CD81EGFP cells; [6]
  Tox_max_inhibition (%): 13%

## Cc1noc(C)c1S(=O)(=O)N(C)C[C@H]1OCc2cn(nn2)CCCC(=O)N([C@@H](C)CO)C[C@@H]1C [BRD-K72210630-001-02-7]
[1]; [7]
  normalized signal at concentration 0.000508053: 0.823
  normalized signal at concentration 0.00152416: 0.7982
  normalized signal at concentration 0.00457247: 0.9501
  normalized signal at concentration 0.0137174: 0.8214
  normalized signal at concentration 0.0411523: 0.9732
  normalized signal at concentration 0.123457: 0.8751
  normalized signal at concentration 0.37037: 1.086
  normalized signal at concentration 1.11111: 0.9189
  normalized signal at concentration 3.33333: 0.9135
  normalized signal at concentration 10: 1.047
[1]; sheet 2nd round, Pb-Luc exoerythrocytic stage, 10-point dose response, top concentration 10
  IC50: > 10 µM
[1]; [8]
  normalized signal at concentration 0.000508053: 1.029
  normalized signal at concentration 0.00152416: 0.9027
  normalized signal at concentration 0.00457247: 0.8403
  normalized signal at concentration 0.0137174: 1.03
  normalized signal at concentration 0.0411523: 0.8593
  normalized signal at concentration 0.123457: 1
  normalized signal at concentration 0.37037: 0.7692
  normalized signal at concentration 1.11111: 0.8393
  normalized signal at concentration 3.33333: 0.8793
  normalized signal at concentration 10: 0.8029
[1]; [6]
  PbLuc_max_inhibition (%): 23%
HepG2-A16-CD81EGFP cells; sheet 2nd round
  IC50: > 10 µM
HepG2-A16-CD81EGFP cells; [6]
  Tox_max_inhibition (%): 5%
